Results on 7 compounds are retold here after US20210395210A1, “INHIBITION OF BACTERIAL CHAPERONIN SYSTEMS” (THE TRUSTEES OF INDIANA UNIVERSITY, priority 2018, published 2021).

Read-outs that look alike come from different tables or passages of the source.

One test deals with T1, human HSP60/10 (Homo sapiens, UniProt P10809).
T1 construct: octa-Histidine tag (TEV-cleavable) (N, cleaved yes); made in house; host or cells: HSP60 in E. coli Rosetta 2 (DE3); HSP10 in Rosetta 2 (DE3) pLysS
As to the kind of experiment: HSP60/10-mediated dMDH refolding assay. It counts as biochemical. The conditions noted are these: human HSP60/10-dMDH refolding assay. On the procedure: Reagent preparation: For these assays, four primary reagent stocks were prepared: 1) GroEUES-dMDH or HSP60/10-dMDH binary complex stock; 2) ATP initiation stock; 3) EDTA quench stock; 4) MDH enzymatic assay stock. Denatured MDH (dMDH) was prepared by 2-fold dilution of MDH (5 mg/ml, soluble pig heart MDH from Roche, product #10127248001) with denaturant buffer (7 M guanidine-HCl, 200 mM Tris, pH 7.4, and 50 mM DTT). MDH was completely denatured by incubating at room temperature for 45 min. The binary complex solutions were prepared by slowly adding the dMDH stock to a stirring stock with GroEL (or HSP60) in folding buffer (50 mM Tris-HCl, pH 7.4, 50 mM KCl, 10 mM MgCl2, and 1 mM DTT), followed by addition of GroES (or HSP10). The binary complex stocks were prepared immediately prior to dispensing into the assay plates and had final protein concentrations of 83.3 nM GroEL (Mr 800 kDa) or HSP60 (Mr 400 kDa), 100 nM GroES or HSP10 (Mr 70 kDa), and 20 nM dMDH in folding buffer. For the ATP initiation stock, ATP solid was diluted into folding buffer to a final concentration of 2.5 mM. Quench solution contained 600 mM EDTA (pH 8.0). The MDH enzymatic assay stock consisted of 20 mM sodium mesoxalate and 2.4 mM NADH in reaction buffer (50 mM Tris-HCl, pH 7.4, 50 mM KCl, and 1 mM DTT).
Assay Protocol: First, 30 μL aliquots of the GroEL/ES-dMDH or HSP60/10-dMDH binary complex stocks were dispensed into clear, 384-well polystyrene plates. […] The chaperonin-mediated refolding cycles were initiated by addition of 20 μL of ATP stock (reagent concentrations during refolding cycle: 50 nM GroEL or HSP60, 60 nM GroES or HSP10, 12 nM dMDH, 1 mM ATP, and compounds of 100 μM to 46 nM, 3-fold dilution series). The refolding reactions were incubated at 37° C. […] Next, the assay was quenched by addition of 10 μL of the EDTA to final concentration of 100 mM. […] A340 nm measurements were recorded at 0.5 minutes (start point) and at successive time points until the amount of NADH consumed reached ˜90% (end point, generally between 20-35 minutes). The differences between the start and end point A340 values were used to calculate the % inhibition of the GroEL/ES or HSP60/10 machinery by the compounds. […] Results presented represent the averages of IC50 values obtained from at least quadriplicate (duplicate of duplicate) replicates.

The subject of test [1] is Enterococcus faecium (ATCC 19434). Kind of test: Bacterial proliferation assay, E. faecium. In kind it is cell-based. The source says: (§1) Bacterial Strains: Enterococcus faecium—(Orla-Jensen) Schleifer and Kilpper-Balz strain NCTC 7171 (ATCC 19434); Drug sensitive Staphylococcus aureus—Rosenbranch strain Seattle 1945 (ATCC 25923); Methicillin resistant S. aureus (MRSA)—Rosenbach strain HPV107 (ATCC BAA-44); Klebsiella Pneumonia—(Schroeter) Trevisan strain NCTC 9633 (ATCC 13883); Acinetobacter baumannii—Bouvet and Grimont strain 2208 (ATCC 19606); Pseudomonas aeruginosa—(Schroeter) Migula strain NCTC 10332 (ATCC 10145); Enterobacter cloacae—E. cloacae, subsp. cloacae (Jordan) Hormaeche and Edwards strain CDC 442-68 (ATCC 13047).
(§2) Growth Media: All bacteria were grown in Brain Heart Infusion (BHI) broth/agar (Becton, Dickinson and Company). All liquid cultures were grown in BHI media supplemented with 25 mg/L Ca^2+ and 12.5 mg/L Mg^2+ to mimic free physiological concentrations of these cations. A 10 mg/mL Ca^2+ stock solution was prepared by dissolving 3.68 g of CaCl2.2H2O in 100 mL of deionized water, and a 10 mg/mL Mg^2+ stock solution was prepared by dissolving 8.36 g of MgCl2.6H2O in 100 mL deionized water. Both stock solutions were filter-sterilized using 0.2 μm pore size cellulose-acetate filters. 2.5 mL of the sterile 10 mg/mL Ca^2+ stock and 1.25 mL of the sterile 10 mg/mL Mg^2+ stock solutions were added per 1 L of autoclaved BHI medium to obtain 25 mg/L Ca^2+ and 12.5 mg/L Mg^2+ ions, respectively.
(§3) General Assay Protocol: Stock bacterial cultures were streaked onto BHI agar plates and grown overnight at 37° C. Fresh aliquots of broth were inoculated with single bacterial colonies and the cultures were grown overnight at 37° C. with shaking (240 rpm) in cation adjusted BHI media. The following morning, the overnight cultures were sub-cultured (1:5 dilution) into fresh aliquots of cation adjusted BHI media and grown at 37° C. for 1-2 hours with shaking. After 2 h, cultures were diluted into fresh media to achieve final OD600 readings of 0.017. Aliquots of these diluted cultures (30 μL) were added to clear, flat-bottom, 384-well polystyrene plates that were stamped with 0.5 μL of test compounds in 20 μL media. […] Plates were sealed with “Breathe Easy” oxygen permeable membranes (Diversified Biotech) and left to incubate at 37° C. without shaking (stagnant assay). OD600 nm readings were taken at either 6-8 h (S. aureus, MRSA, K. pneumonia, E. cloacae, and P. aeruginosa) or 24 h (E. faecium and A. baumannii). A second set of baseline control plates were prepared analogously, but without any bacteria added, to correct for possible compound absorbance and/or precipitation. Plates were then read at 600 nm using a Molecular Devices SpectraMax Plus384 microplate reader. […] Results presented represent the averages of EC50 values obtained from at quadriplicate (duplicate of duplicate) replicates.

Test [2] has as its system Drug sensitive Staphylococcus aureus (ATCC 25923). As to the kind of experiment: Bacterial proliferation assay, drug sensitive S. aureus. It counts as cell-based.
Description: as §1, §2, §3

Test [3] concerns Pseudomonas aeruginosa (ATCC 10145). Kind of test: Bacterial proliferation assay, P. aeruginosa. It counts as cell-based.
Description: as §1, §2, §3

Test [4] concerns Enterobacter cloacae (ATCC 13047). Kind of test: Bacterial proliferation assay, E. cloacae. It counts as cell-based.
Description: as §1, §2, §3

[5] abbreviates: read-out: HSP60/10-dMDH Refolding IC50.
Where [6] appears, read: log(IC50) ± standard deviation, read-out: HSP60/10-dMDH Refolding Assay log(IC50) (converted).
The mark [7] stands for this setting: ATCC19434, OD600 at 24 h, read-out: Bacterial Proliferation EC50 E. faecium.
The mark [8] stands for this setting: ATCC19434, log of EC50 (μM scale), with standard deviation, read-out: log(EC50) Bacterial Proliferation Assay C. faecium (converted).
[9] abbreviates: ATCC25923, OD600 at 6-8 h, read-out: Bacterial Proliferation EC50 S. aureus Sensitive.
[10] abbreviates: ATCC25923, log of EC50 (μM scale), with standard deviation, read-out: log(EC50) Bacterial Proliferation Assay S. aureus Sensitive (converted).
[11] abbreviates: ATCC10145, OD600 at 6-8 h, read-out: Bacterial Proliferation EC50 P. aeruginosa.
The mark [12] stands for this setting: ATCC10145, log of EC50 (μM scale), with standard deviation, read-out: log(EC50) Bacterial Proliferation Assay P. aeruginosa (converted).
[13] abbreviates: ATCC13047, OD600 at 6-8 h, read-out: Bacterial Proliferation EC50 E. cloacae.
[14] abbreviates: ATCC13047, log of EC50 (μM scale), with standard deviation, read-out: log(EC50) Bacterial Proliferation Assay E. cloacae (converted).

T1 sequence (P10809 27-573): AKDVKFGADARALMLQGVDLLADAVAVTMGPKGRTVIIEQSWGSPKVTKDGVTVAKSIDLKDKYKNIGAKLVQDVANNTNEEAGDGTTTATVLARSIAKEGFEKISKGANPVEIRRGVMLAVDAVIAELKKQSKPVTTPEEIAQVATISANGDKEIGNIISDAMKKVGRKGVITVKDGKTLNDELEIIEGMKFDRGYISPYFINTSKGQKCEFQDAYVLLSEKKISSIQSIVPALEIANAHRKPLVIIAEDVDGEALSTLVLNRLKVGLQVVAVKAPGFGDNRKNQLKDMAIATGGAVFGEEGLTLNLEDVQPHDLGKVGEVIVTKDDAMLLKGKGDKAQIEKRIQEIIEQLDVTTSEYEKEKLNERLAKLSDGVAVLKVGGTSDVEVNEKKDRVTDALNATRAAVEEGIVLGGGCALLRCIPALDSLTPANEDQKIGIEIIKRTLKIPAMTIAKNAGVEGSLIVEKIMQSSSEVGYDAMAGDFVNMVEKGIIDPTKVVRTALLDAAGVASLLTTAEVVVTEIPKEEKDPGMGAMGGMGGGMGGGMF

`O=C(Nc1ccc(Sc2nc3ccccc3s2)cc1)c1ccccc1O` [Compound 8, N-(4-(Benzo[d]thiazol-2-ylthio)phenyl)-2-hydroxybenzamide]: the IC50 at human HSP60/10 (setting [5]) and on human HSP60/10 (setting [6]) was greater than 100 µM each time. Also, the EC50 was 67 µM in test [1] (setting [7]); 67.6 µM in test [1] (setting [8]); 0.2 µM in test [2] (setting [9]); 0.204 µM in test [2] (setting [10]); greater than 100 µM in test [3] (setting [11]); greater than 100 µM in test [3] (setting [12]). The EC50 in test [4] (setting [13]) and in test [4] (setting [14]) was greater than 100 µM each time.
With `COc1ccc(Br)cc1C(=O)Nc1cccc(Cl)c1` [Compound 39, 5-Bromo-N-(3-chlorophenyl)-2-methoxybenzamide], the IC50 on human HSP60/10 (setting [5]) and on human HSP60/10 (setting [6]) was greater than 100 µM in each case. Besides, the EC50 in test [1] (setting [7]), in test [1] (setting [8]), in test [2] (setting [9]), in test [2] (setting [10]), in test [3] (setting [11]) and in test [3] (setting [12]) was greater than 100 µM each time. In addition, the EC50 in test [4] (setting [13]) and in test [4] (setting [14]) was greater than 100 µM each time.
With `O=C(Nc1cccc(Cl)c1)c1ccccc1O` [Compound 12, N-(3-Chlorophenyl)-2-hydroxybenzamide], the IC50 at human HSP60/10 (setting [5]) and on human HSP60/10 (setting [6]) was greater than 100 µM throughout. The EC50 in test [1] (setting [7]) is greater than 100 µM; in test [1] (setting [8]) it was greater than 100 µM; in test [2] (setting [9]), 3.1 µM; in test [2] (setting [10]) it was 3.09 µM; in test [3] (setting [11]), greater than 100 µM; in test [3] (setting [12]), greater than 100 µM. Besides, the EC50 in test [4] (setting [13]) and in test [4] (setting [14]) was greater than 100 µM each time.
Regarding `COc1c(Br)cc(Br)cc1C(=O)Nc1ccccc1` [Compound 41, 3,5-Dibromo-2-methoxy-N-phenylbenzamide], the IC50 on human HSP60/10 (setting [5]) and on human HSP60/10 (setting [6]) was greater than 100 µM throughout. The EC50 in test [1] (setting [7]), in test [1] (setting [8]), in test [2] (setting [9]), in test [2] (setting [10]), in test [3] (setting [11]) and in test [3] (setting [12]) was greater than 100 µM throughout. Also, the EC50 in test [4] (setting [13]) and in test [4] (setting [14]) was greater than 100 µM in each case.
Take `O=C(Nc1cccc(Cl)c1)c1cc(Br)cc(Br)c1` [Compound 23, 3,5-Dibromo-N-(3-chlorophenyl)benzamide]: the IC50 on human HSP60/10 (setting [5]) and on human HSP60/10 (setting [6]) was greater than 100 µM each time. Moreover, the EC50 in test [1] (setting [7]) is greater than 100 µM; in test [1] (setting [8]), greater than 100 µM; in test [2] (setting [9]) it was 14 µM; in test [2] (setting [10]) it was 13.8 µM; in test [3] (setting [11]), greater than 100 µM; in test [3] (setting [12]), greater than 100 µM. The EC50 in test [4] (setting [13]) and in test [4] (setting [14]) was greater than 100 µM throughout.
On to `O=C(Nc1ccc(Sc2nc3ccccc3s2)cc1)c1cc(Br)cc(Br)c1` [Compound 20, N-(4-(Benzo[d]thiazol-2-ylthio)phenyl)-3,5-dibromobenzamide], for which the IC50 on human HSP60/10 (setting [5]) and at human HSP60/10 (setting [6]) was greater than 100 µM throughout. The EC50 in test [1] (setting [7]), in test [1] (setting [8]), in test [2] (setting [9]), in test [2] (setting [10]), in test [3] (setting [11]) and in test [3] (setting [12]) was greater than 100 µM throughout. Further, the EC50 in test [4] (setting [13]) and in test [4] (setting [14]) was greater than 100 µM throughout.
`COc1c(Br)cccc1C(=O)Nc1ccc(Sc2nc3ccccc3s2)cc1` [Compound 34, N-(4-(Benzo[d]thiazol-2-ylthio)phenyl)-3-bromo-2-methoxybenzamide]: the IC50 at human HSP60/10 (setting [5]) and on human HSP60/10 (setting [6]) was greater than 100 µM each time. The EC50 in test [1] (setting [7]), in test [1] (setting [8]), in test [2] (setting [9]), in test [2] (setting [10]), in test [3] (setting [11]) and in test [3] (setting [12]) was greater than 100 µM each time. Moreover, the EC50 in test [4] (setting [13]) and in test [4] (setting [14]) was greater than 100 µM each time.
